Test results from patent US9850283B2, “Macrocyclic inhibitors of the PD-1/PD-L1 and CD80(B7-1)/PD-L1 protein/protein interactions” (BRISTOL-MYERS SQUIBB COMPANY, priority 2013, dated 2017).
Like-named read-outs stand apart in the source and are kept apart here. Starred links: 1 amine or outer side, 2 acyl side, 3 side chain; linkers in the order of their positions; H or OH if unused. Positions of bridges follow the written chain, without caps; N, C: chain ends. Non-standard residues stand in square brackets, D forms with d. Residues, ends and D or L forms follow the SMILES beside them. ξ: configuration not given here. X14 = O=C([C@H](Cc1cc(F)c(F)c(Cl)c1)N[*:1])[*:2]; Phe(3,4-Cl2) = N[C@@H](Cc1ccc(Cl)c(Cl)c1)C(=O)O; Phe(3-F) = N[C@@H](Cc1cccc(F)c1)C(=O)O; Hyp = O=C(O)[C@@H]1C[C@@H](O)CN1; NMeF = CN[C@@H](Cc1ccccc1)C(=O)O; NMeNle = CCCC[C@H](NC)C(=O)O; NMeM = CN[C@@H](CCSC)C(=O)O; NMeA = CN[C@@H](C)C(=O)O; Orn = NCCC[C@H](N)C(=O)O; Dap = NC[C@H](N)C(=O)O; ξC = NC(CS)C(=O)O; Sar = CNCC(=O)O

Columns and labels:
[1] = target: T1, LK35.2-hPD-L1 cells / PE-labeled PD-1-Ig (Homo sapiens, UniProt Q9NZQ7); assay: LK35.2-hPD-L1 cell binding high-content screening assay; type: cell-based; details: cluster symbol, read-out: CBA IC50 cluster
T1 construct: expressed in transfected cells; host or cells: LK35.2 mouse B cell line
In short: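 Binding of PE-conjugated human PD-1-Ig (1 nM final) to human PD-L1 stably expressed on a mouse B-cell line (LK35.2) was measured by high-content imaging after washes. Compound and labeled PD-1-Ig were co-incubated 1 h at 37 °C with cells in RPMI/10% FCS.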

Human PD-L1/PD-1 = target: T2, Human PD-L1/PD-1 (Homo sapiens, UniProt Q9NZQ7); assay: HTRF PD-1-Ig/PD-L1-His binding assay (human PD-L1); details: cluster symbol; read-out: HTRF IC50 cluster
T2 construct: made in house; host or cells: HEK293T
In short: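 Readout: time-resolved FRET between Eu cryptate-labeled anti-Ig (1 nM final) and APC-labeled anti-His (20 nM final) antibodies. These detect interaction of Fc-fused PD-1 with His-tagged human PD-L1 in dPBS containing 0.1% BSA and 0.05% Tween-20.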

[2] = cell binding assay, cell line not given
[3] = cell line of CBA not given (LK35.2-hPD-L1 or 293T-hPD-L1)

T2 sequence (Q9NZQ7 with tags, fused parts or gaps): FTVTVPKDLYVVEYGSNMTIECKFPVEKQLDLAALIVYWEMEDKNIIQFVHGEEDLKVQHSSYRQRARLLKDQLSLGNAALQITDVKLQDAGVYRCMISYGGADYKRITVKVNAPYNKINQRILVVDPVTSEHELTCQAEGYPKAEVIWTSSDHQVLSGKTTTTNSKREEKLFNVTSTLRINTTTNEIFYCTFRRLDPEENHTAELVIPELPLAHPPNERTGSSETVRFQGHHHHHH
T1 sequence (Q9NZQ7 19-290): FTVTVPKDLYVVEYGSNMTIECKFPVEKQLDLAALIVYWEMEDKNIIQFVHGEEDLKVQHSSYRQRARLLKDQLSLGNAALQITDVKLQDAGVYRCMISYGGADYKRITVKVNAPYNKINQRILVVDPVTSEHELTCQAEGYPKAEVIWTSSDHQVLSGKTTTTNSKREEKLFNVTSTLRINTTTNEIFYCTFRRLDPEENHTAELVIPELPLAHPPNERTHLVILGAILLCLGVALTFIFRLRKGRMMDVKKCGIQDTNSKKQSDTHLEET

## CCCC[C@H]1C(=O)N(C)[C@@H](CCCC)C(=O)N[C@@H](CCCNC(=N)N)C(=O)N[C@H](C(=O)NCC(N)=O)CSCC(=O)N[C@@H](Cc2ccccc2)C(=O)N(C)[C@@H](C)C(=O)N[C@@H](CC(N)=O)C(=O)N2CCC[C@H]2C(=O)N[C@@H](Cc2cnc[nH]2)C(=O)N[C@@H](CCCCN)C(=O)N(C)CC(=O)N[C@@H](Cc2c[nH]c3ccccc23)C(=O)N[C@@H](CO)C(=O)N[C@@H](Cc2c[nH]c3ccccc23)C(=O)N1C [Example 6004] ({CH2CO}-F[NMeA]NPHK[Sar]WSW[NMeNle][NMeNle]RCG-NH2; thioether N-14)
[1]; [2]
  IC50: 4.78 to 72.9 nM
Human PD-L1/PD-1
  IC50: 6.76 to 30.3 nM

## CCCC[C@H]1C(=O)N(C)CC(=O)N[C@@H](CC(=O)O)C(=O)N[C@@H](C(C)C)C(=O)N(C)[C@@H](Cc2ccccc2)C(=O)N[C@@H](Cc2ccc(O)cc2)C(=O)N(C)CC(=O)N[C@@H](Cc2c[nH]c3ccccc23)C(=O)N[C@@H](Cc2ccc(Cl)c(Cl)c2)C(=O)N[C@@H](CC(C)C)C(=O)N[C@H](C(=O)NCC(N)=O)CSCC(=O)N[C@@H](Cc2ccccc2)C(=O)N(C)[C@@H](Cc2ccccc2)C(=O)N1C [Example 3100] ({CH2CO}-F[NMeF][NMeNle][Sar]DV[NMeF]Y[Sar]W[Phe(3,4-Cl2)]LCG-NH2; thioether N-13)
[1]; [3]
  IC50: > 74.3 nM
Human PD-L1/PD-1
  IC50: > 30.5 nM

## CCCC[C@H]1C(=O)N(C)CC(=O)N[C@@H](CC(=O)O)C(=O)N[C@@H](C(C)C)C(=O)N(C)[C@@H](Cc2ccccc2)C(=O)N[C@@H](Cc2ccc(O)cc2)C(=O)N(C)CC(=O)N[C@@H](Cc2c[nH]c3ccccc23)C(=O)N[C@@H](Cc2ccc(O)cc2)C(=O)N[C@@H](CC(C)C)C(=O)N[C@H](C(=O)NCC(N)=O)CSCC(=O)N[C@@H](Cc2cccc(F)c2)C(=O)N(C)[C@@H](Cc2ccccc2)C(=O)N1C [Example 3125] ({CH2CO}-[Phe(3-F)][NMeF][NMeNle][Sar]DV[NMeF]Y[Sar]WYLCG-NH2; thioether N-13)
[1]; [3]
  IC50: 0.158 to 4.71 nM
Human PD-L1/PD-1
  IC50: 6.76 to 30.3 nM

## CCCC[C@H]1C(=O)N(C)CC(=O)N[C@@H](CC(=O)O)C(=O)N[C@@H](C(C)C)C(=O)N(C)[C@@H](Cc2ccccc2)C(=O)N[C@@H](Cc2ccc(O)cc2)C(=O)N(C)CC(=O)N[C@@H](Cc2c[nH]c3ccccc23)C(=O)N[C@@H](Cc2ccc(O)cc2)C(=O)N[C@@H](CC(C)C)C(=O)N[C@H](C(=O)NCC(N)=O)CSCC(=O)N[C@@H](Cc2cc(F)c(F)c(Cl)c2)C(=O)N(C)[C@@H](Cc2ccccc2)C(=O)N1C [Example 3186] ({CH2CO}-[X14][NMeF][NMeNle][Sar]DV[NMeF]Y[Sar]WYLCG-NH2; thioether N-13)
[1]; [3]
  IC50: 0.158 to 4.71 nM
Human PD-L1/PD-1
  IC50: 6.76 to 30.3 nM

## CCCC[C@H]1C(=O)N(C)[C@@H](CCSC)C(=O)N[C@@H](CCCNC(=N)N)C(=O)NC(C(=O)NCC(N)=O)CSCC(=O)N[C@@H](Cc2ccc(O)cc2)C(=O)N(C)[C@@H](C)C(=O)N[C@@H](CC(N)=O)C(=O)N2CCC[C@H]2C(=O)N[C@@H](CN)C(=O)N[C@@H](CC(C)C)C(=O)N2C[C@H](O)C[C@H]2C(=O)N[C@@H](Cc2c[nH]c3ccccc23)C(=O)N[C@@H](CO)C(=O)N[C@@H](Cc2c[nH]c3ccccc23)C(=O)N1C (stereo partly drawn) [Example 9083] ({CH2CO}-Y[NMeA]NP[Dap]L[Hyp]WSW[NMeNle][NMeM]R[ξC]G-NH2; thioether N-14)
[1]; [2]
  IC50: 0.158 to 4.71 nM
Human PD-L1/PD-1
  IC50: 6.76 to 30.3 nM

## CCCC[C@H]1C(=O)N(C)[C@@H](CCCC)C(=O)N[C@@H](C)C(=O)N[C@H](C(=O)NCC(N)=O)CSCC(=O)N[C@@H](Cc2ccc(O)cc2)C(=O)N(C)[C@@H](C)C(=O)N[C@@H](CCC(=O)O)C(=O)N2CCC[C@H]2C(=O)N[C@@H](Cc2cnc[nH]2)C(=O)N[C@@H](CCCN)C(=O)N2C[C@H](O)C[C@H]2C(=O)N[C@@H](Cc2c[nH]c3ccccc23)C(=O)N[C@@H](CO)C(=O)N[C@@H](Cc2c[nH]c3ccccc23)C(=O)N1C [Example 1178] ({CH2CO}-Y[NMeA]EPH[Orn][Hyp]WSW[NMeNle][NMeNle]ACG-NH2; thioether N-14)
[1]; [3]
  IC50: 4.78 to 72.9 nM
Human PD-L1/PD-1
  IC50: 0.385 to 6.74 nM
